{"source": "patent US20050143411A1", "about": "“Method for treating pulmonary disease” (Fujisawa Pharmaceutical Co., Ltd., priority 2003, published 2005)", "tested_on": "cigarette smoke exposed guinea pigs", "experiment": "cigarette smoke-induced COPD model in guinea pigs; specific airway resistance (sRaw) by double body plethysmograph", "assay_type": "in vivo, Hartley guinea pigs", "method": "The effect of the FK506 Substance on the cigarette smoke-induced COPD model in guinea pigs was confirmed in the following manner.\n1. Hartley guinea pigs were exposed to cigarette smoke in a nose-only inhalation chamber for 60 min/day, 5 days/week, for 4 weeks. Animals of the negative control group were exposed to the air.\n2. FK506 Substance in the form of a solid dispersion composition, which was prepared in a similar manner to that of Example 1 (above), or its placebo was given orally, after suspension in water, every day about 1 hr before the cigarette smoke exposure.\n3. Specific airway resistance (sRaw) was measured as a respiratory function parameter at 0, 1, 2, 3 and 4 weeks after the start of cigarette smoke inhalation by a double body plethysmograph method (Ref. 1).\nReference • Ref. 1; Pennock B E, Cox C P, Rogers R M, Cain W A, Wells J H. A Noninvasive technique for measurement of changes in specific airway resistance. J Appl Physiol. 1979 February; 46(2):399-406. Results"}
{"smiles": "C=CCC1C=C(C)CC(C)CC(OC)C2OC(O)(C(=O)C(=O)N3CCCCC3C(=O)OC(C(C)=CC3CCC(O)C(OC)C3)C(C)C(O)CC1=O)C(C)CC2OC", "note": "(centres unmarked) [FK506, 17-allyl-1,14-dihydroxy-12-[2-(4-hydroxy-3-methoxycyclohexyl)-1-methylvinyl]-23,25-dimethoxy-13,19,21,27-tetramethyl-11,28-dioxa-4-azatricyclo[22.3.1.0^4,9]octacos-18-ene-2,3,10,16-tetraone]", "values": [{"measurement": "sRaw", "setting": "FK506 0.32 mg/kg orally every day, 1 week of cigarette smoke exposure", "result": "1.815 ± 0.073 cmH2O × mL/(mL/sec)"}, {"measurement": "sRaw", "setting": "FK506 0.32 mg/kg orally every day, 2 weeks of cigarette smoke exposure", "result": "2.089 ± 0.054 cmH2O × mL/(mL/sec)"}, {"measurement": "sRaw", "setting": "FK506 0.32 mg/kg orally every day, 3 weeks of cigarette smoke exposure", "result": "2.476 ± 0.112 cmH2O × mL/(mL/sec)"}, {"measurement": "sRaw", "setting": "FK506 0.32 mg/kg orally every day, 4 weeks of cigarette smoke exposure", "result": "2.636 ± 0.133 cmH2O × mL/(mL/sec)"}, {"measurement": "sRaw", "setting": "FK506 0.32 mg/kg orally every day, pre (0 weeks), n=8", "result": "1.892 ± 0.048 cmH2O × mL/(mL/sec)"}, {"measurement": "sRaw", "setting": "FK506 1 mg/kg orally every day, 1 week of cigarette smoke exposure", "result": "1.844 ± 0.123 cmH2O × mL/(mL/sec)"}, {"measurement": "sRaw", "setting": "FK506 1 mg/kg orally every day, 2 weeks of cigarette smoke exposure", "result": "2.012 ± 0.103 cmH2O × mL/(mL/sec)"}, {"measurement": "sRaw", "setting": "FK506 1 mg/kg orally every day, 3 weeks of cigarette smoke exposure", "result": "2.372 ± 0.167 cmH2O × mL/(mL/sec)"}, {"measurement": "sRaw", "setting": "FK506 1 mg/kg orally every day, 4 weeks of cigarette smoke exposure", "result": "2.763 ± 0.276 cmH2O × mL/(mL/sec)"}, {"measurement": "sRaw", "setting": "FK506 1 mg/kg orally every day, pre (0 weeks), n=8", "result": "1.899 ± 0.064 cmH2O × mL/(mL/sec)"}, {"measurement": "effect on decline of the respiratory function (increase of sRaw) caused by cigarette smoke", "setting": "orally given, cigarette smoke exposed guinea pigs", "result": "significantly suppressed the decline of the respiratory function"}]}
